Earlier results as cited in article PMC11327090, “The Nectin family ligands, PVRL2 and PVR, in cancer immunology and immunotherapy” (Frontiers in Immunology, 2024).

Columns and labels:
Myeloma cells = tested on: Myeloma cells; parameters: method as in PMID 19098271; settings: treated myeloma cells
breast cancer cell lines = tested on: breast cancer cell lines; parameters: method as in PMID 30039180; settings: in vitro
[1] = tested on: non-small cell lung cancer; parameters: method as in PMID 35576957; settings: phase II trial

| Compound | PVRL2 and PVR expression (Myeloma cells) | PVR expression (breast cancer cell lines) | objective response rate [1] | Median progression-free survival ([1]; 95% CI in brackets) |
| --- | --- | --- | --- | --- |
| COc1cccc2c1C(=O)c1c(O)c3c(c(O)c1C2=O)C[C@@](O)(C(=O)CO)C[C@@H]3O[C@H]1C[C@H](N)[C@H](O)[C@H](C)O1 [Adriamycin] | upregulate PVRL2 and PVR expression | increases PVR expression |  |  |
| CC(C)C[C@H](NC(=O)[C@H](Cc1ccccc1)NC(=O)c1cnccn1)B(O)O [bortezomib] | upregulate PVRL2 and PVR expression |  |  |  |
| N[C@@H](Cc1ccc(N(CCCl)CCCl)cc1)C(=O)O [melphalan] | upregulate PVRL2 and PVR expression |  |  |  |
| placebo plus atezolizumab: anti-PD-L1 antibody atezolizumab with placebo, comparator arm of the phase II trial |  |  | 16.2% | 3.6 months |
